Experimental data as given in patent publication EP0306455A1, “Cyclodextrin complexes of bis-biguanido hexane compounds” (WARNER-LAMBERT COMPANY, priority 1987, dated 1989).
Counter-ions that a name gives are not always drawn. Like-named read-outs stand apart in the source and are kept apart here.

Tests used:
A.viscosus = experiment: Anti-microbial activity (MIC and MLC); format: cell-based; details: complex compared with uncomplexed chlorhexidine digluconate
Source text: (§1) A comparison of the anti-microbial activity of chlorhexidine digluconate and beta-cyclodextrin complexed chlorhexidine digluconates were compared against four microorganisms, C.albicans, S. anaguis, S.mutans and A.viscosus.

S.mutans = experiment: Anti-microbial activity (MIC and MLC); format: cell-based; details: complex compared with uncomplexed chlorhexidine digluconate
Source text: as §1

S. anaguis = experiment: Anti-microbial activity (MIC and MLC); format: cell-based; details: complex compared with uncomplexed chlorhexidine digluconate
Source text: as §1

C.albicans = experiment: Anti-microbial activity (MIC and MLC); format: cell-based; details: complex compared with uncomplexed chlorhexidine digluconate
Source text: as §1

[1] = background statement, temperature not given; dihydrochloride; cited from earlier work
[2] = Method: Free chlorhexidine has a water solubility of about 8 mg. per 100 ml. of water at room temperature.

Compound | minimum inhibitory concentration (MIC) (A.viscosus) | minimum lethal concentration (MLC) (A.viscosus) | minimum inhibitory concentration (MIC) (S.mutans) | minimum lethal concentration (MLC) (S.mutans) | minimum inhibitory concentration (MIC) (S. anaguis) | minimum lethal concentration (MLC) (S. anaguis) | minimum inhibitory concentration (MIC) (C.albicans) | minimum lethal concentration (MLC) (C.albicans) | water solubility [1] | water solubility ([2]; water) | water solubility [2]
N=C(NCCCCCCNC(=N)NC(=N)Nc1ccc(Cl)cc1)NC(=N)Nc1ccc(Cl)cc1 [chlorhexidine digluconate] | similar | similar | similar | similar | similar | similar | similar | similar |  |  | 
[H]/N=C(\N/C(=N/[H])NCCCCCCNC(=N)NC(=N)Nc1ccc(Cl)cc1)Nc1ccc(Cl)cc1 [chlorhexidine dihydrochloride] |  |  |  |  |  |  |  |  | ~60 mg per 100 ml of water | 60 mg. per 100 ml. of water | 
[H]/N=C(\N/C(=N/[H])NCCCCCCNC(=N)NC(=N)Nc1ccc(Cl)cc1)Nc1ccc(Cl)cc1 [chlorhexidine, 1,6-di(p-chlorophenylbiguanides) hexane] |  |  |  |  |  |  |  |  |  | 8 mg. per 100 ml. of water | about 8 mg. per 100 ml. of water
